ChEMBL document CHEMBL1201862, “PubChem BioAssay data set” (2004)
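Step 1: Grow cells in 96-well plates. Step 2: Expose to compound for 48 hours at 5 concentrations. Step 3: Interpolate endpoints linearly; if unreached, use highest concentration. Abbreviation: GI50, concentration required for 50% inhibition of growth.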 Calls of active or inactive are those of the source. No stated cut-off is given here; in the data, active = GI50 up to about 1.1 µM and inactive = higher.

What was measured:
Assay in all cases: NCI anticancer screen, dose series, 48 h
U-251 = tested on: U-251
RXF 393 = tested on: RXF 393
OVCAR-3 = tested on: OVCAR-3
DU-145 = tested on: DU-145
IGROV-1 = tested on: IGROV-1
PC-3 = tested on: PC-3
NCI-H522 = tested on: NCI-H522
HOP-62 = tested on: HOP-62
UACC-257 = tested on: UACC-257
SNB-19 = tested on: SNB-19
Hs-578T = tested on: Hs-578T
OVCAR-5 = tested on: OVCAR-5
Malme-3M = tested on: Malme-3M
HCC 2998 = tested on: HCC 2998
SF-539 = tested on: SF-539
SK-OV-3 = tested on: SK-OV-3
EKVX = tested on: EKVX
MDA-MB-231 = tested on: MDA-MB-231
ACHN = tested on: ACHN
HOP-92 = tested on: HOP-92

| SMILES | GI50 (U-251) | GI50 (RXF 393) | GI50 (OVCAR-3) | GI50 (DU-145) | GI50 (IGROV-1) | GI50 (PC-3) | GI50 (NCI-H522) | GI50 (HOP-62) | GI50 (UACC-257) | GI50 (SNB-19) | GI50 (Hs-578T) | GI50 (OVCAR-5) | GI50 (Malme-3M) | GI50 (HCC 2998) | GI50 (SF-539) | GI50 (SK-OV-3) | GI50 (EKVX) | GI50 (MDA-MB-231) | GI50 (ACHN) | GI50 (HOP-92) |
| --- | --- | --- | --- | --- | --- | --- | --- | --- | --- | --- | --- | --- | --- | --- | --- | --- | --- | --- | --- | --- |
| C[n+]1cccc(/C=C/c2ccc3cccc(O)c3n2)c1 | 49.2 µM (inactive) | > 100 µM (inactive) | 27 µM (inactive) | > 100 µM (inactive) | > 100 µM (inactive) | > 100 µM (inactive) | 24.8 µM (inactive) | 59 µM (inactive) | > 100 µM (inactive) | 42 µM (inactive) | 65.5 µM (inactive) | > 100 µM (inactive) | 19.3 µM (inactive) | > 100 µM (inactive) | 88.1 µM (inactive) | > 100 µM (inactive) | > 100 µM (inactive) | > 100 µM (inactive) | > 100 µM (inactive) | > 100 µM (inactive) |
| CC(=O)[C@]1(O)Cc2c(O)c3c(c(O)c2C(OC2OC(C)C(O)C(O)C2F)C1)C(=O)c1ccccc1C3=O (stereo partly specified) | < 0.0159 µM (active) | 0.624 µM (active) | 0.568 µM (active) | 0.0502 µM (active) | 0.0419 µM (active) | 0.316 µM (active) | 0.316 µM (active) | < 0.0189 µM (active) | 0.225 µM (active) | < 0.0199 µM (active) | 0.33 µM (active) | 0.125 µM (active) | 0.208 µM (active) | 0.208 µM (active) | < 0.0402 µM (active) | 0.135 µM (active) | 0.61 µM (active) | 0.115 µM (active) | 0.0107 µM (active) | 0.055 µM (active) |
| Cc1nc(C)c(N2CCN(S(=O)(=O)N(Cc3ccccc3)Cc3ccccc3)CC2)c(O)n1 | 5.21 µM (inactive) | 11.2 µM (inactive) | 52.8 µM (inactive) | > 59.4 µM (inactive) | 16.8 µM (inactive) | 41.8 µM (inactive) | 4.85 µM (inactive) | 9.31 µM (inactive) | > 100 µM (inactive) | 8.91 µM (inactive) | 3.4 µM (inactive) | 29.2 µM (inactive) | > 100 µM (inactive) | > 100 µM (inactive) | 12.5 µM (inactive) | 7.76 µM (inactive) | > 60 µM (inactive) | > 35.7 µM (inactive) | 28.6 µM (inactive) | 9.73 µM (inactive) |
| O=C(c1cc(Cl)cc(Cl)c1)N(Cc1cccnc1)C(=S)N(Cc1cccnc1)C(=O)c1cc(Cl)cc(Cl)c1 | 22.2 µM (inactive) | 34.2 µM (inactive) | 21.7 µM (inactive) | 41.8 µM (inactive) |  | 18.4 µM (inactive) | 23.8 µM (inactive) | 29.9 µM (inactive) | 33 µM (inactive) | 52.6 µM (inactive) | 60.8 µM (inactive) | 35.6 µM (inactive) | 55.8 µM (inactive) | 19.3 µM (inactive) | 23.4 µM (inactive) | > 100 µM (inactive) | 87.1 µM (inactive) | 26.5 µM (inactive) | 22.5 µM (inactive) | 36.6 µM (inactive) |
| COc1cc2c(cc1OC)C13CCN4CC5CCOC6CC(=O)N2C1C6C5CC43 (stereo unspecified) | > 100 µM (inactive) | > 100 µM (inactive) | > 100 µM (inactive) | > 100 µM (inactive) | > 100 µM (inactive) | > 100 µM (inactive) | > 100 µM (inactive) | > 100 µM (inactive) | > 100 µM (inactive) | > 100 µM (inactive) | > 100 µM (inactive) | > 100 µM (inactive) | > 100 µM (inactive) | > 100 µM (inactive) | > 100 µM (inactive) | > 100 µM (inactive) | > 100 µM (inactive) | > 100 µM (inactive) | > 100 µM (inactive) | > 100 µM (inactive) |
| Cn1c(=O)c2nc(SCc3ccccn3)[nH]c2n(C)c1=S | 46.7 µM (inactive) | 32.1 µM (inactive) | > 100 µM (inactive) | > 100 µM (inactive) | > 100 µM (inactive) | > 100 µM (inactive) | > 100 µM (inactive) | 44 µM (inactive) | > 100 µM (inactive) | 56 µM (inactive) | > 100 µM (inactive) | > 100 µM (inactive) | > 100 µM (inactive) |  | 34.1 µM (inactive) | 27.7 µM (inactive) | 74 µM (inactive) | 76.6 µM (inactive) | > 100 µM (inactive) | 39.2 µM (inactive) |
| Cc1nc(C)c(N2CCNCC2)c(O)n1 | > 100 µM (inactive) | > 100 µM (inactive) | > 100 µM (inactive) | > 100 µM (inactive) | > 100 µM (inactive) | > 100 µM (inactive) | > 100 µM (inactive) | > 100 µM (inactive) | > 100 µM (inactive) | > 100 µM (inactive) | > 100 µM (inactive) |  | > 100 µM (inactive) | > 100 µM (inactive) | > 100 µM (inactive) | > 100 µM (inactive) | > 100 µM (inactive) | > 100 µM (inactive) | > 100 µM (inactive) | > 100 µM (inactive) |
| CC(C)(C)c1cc(C(C)(C)C)c2sc(=S)oc2c1O | 6.3 µM (inactive) | 4.69 µM (inactive) | 5.14 µM (inactive) | 11.7 µM (inactive) | 9.98 µM (inactive) | 4.29 µM (inactive) | 5.9 µM (inactive) | 14.9 µM (inactive) | 14.3 µM (inactive) | 12.7 µM (inactive) | 4.43 µM (inactive) | 7.46 µM (inactive) | 15.8 µM (inactive) |  | 2.39 µM (inactive) | 17.9 µM (inactive) | 3.85 µM (inactive) | 13.6 µM (inactive) | 8.53 µM (inactive) | 14.1 µM (inactive) |
| C[C@]12CC[C@@H]3c4cc(Br)c(O)c(Br)c4CC[C@H]3[C@@H]1CC(Br)C2=O (stereo partly specified) | 3.3 µM (inactive) | 2.51 µM (inactive) | 2.58 µM (inactive) | 23.4 µM (inactive) | 9.23 µM (inactive) | 8.61 µM (inactive) |  |  | 15.8 µM (inactive) |  | 5.86 µM (inactive) | 22.1 µM (inactive) | 15.2 µM (inactive) | 1.99 µM (inactive) | 7.52 µM (inactive) | 14.6 µM (inactive) | 13.2 µM (inactive) | 6.62 µM (inactive) | 6.37 µM (inactive) | 20.7 µM (inactive) |
| COc1ccc(NC(=O)CC(=O)N2N=C(N(c3ccccc3)c3ccccc3)CC2c2ccccc2)cc1 (stereo unspecified) | > 100 µM (inactive) | > 100 µM (inactive) | > 100 µM (inactive) | > 100 µM (inactive) | > 100 µM (inactive) | > 100 µM (inactive) | > 100 µM (inactive) | > 100 µM (inactive) | > 100 µM (inactive) | > 100 µM (inactive) | 98.4 µM (inactive) | > 100 µM (inactive) |  | > 100 µM (inactive) | > 100 µM (inactive) | > 100 µM (inactive) | > 100 µM (inactive) | > 100 µM (inactive) | > 100 µM (inactive) | > 100 µM (inactive) |
| Nc1nc(Cl)cc(NCC2CC(O)(CO)C2)n1 (stereo unspecified) | > 100 µM (inactive) | > 100 µM (inactive) | > 100 µM (inactive) | > 100 µM (inactive) | > 100 µM (inactive) | > 100 µM (inactive) | > 100 µM (inactive) | > 100 µM (inactive) | > 100 µM (inactive) |  | > 100 µM (inactive) | > 100 µM (inactive) | > 100 µM (inactive) | > 100 µM (inactive) | > 100 µM (inactive) | > 100 µM (inactive) | > 100 µM (inactive) | > 100 µM (inactive) | > 100 µM (inactive) | > 100 µM (inactive) |
| Cc1ccnc2[nH]c(-c3ccccc3)cc(=O)c12 | 0.00552 µM (active) | 0.0192 µM (active) | 0.00583 µM (active) | 0.0313 µM (active) | 0.0726 µM (active) | 0.00548 µM (active) | 0.00838 µM (active) |  | 0.0113 µM (active) | 0.0233 µM (active) | 0.0114 µM (active) | 0.643 µM (active) | 0.0092 µM (active) | 0.037 µM (active) | 0.0191 µM (active) | 0.0136 µM (active) | 0.3 µM (active) | 0.0912 µM (active) | 0.0458 µM (active) | 0.0524 µM (active) |
| COC(=O)C1CCC(=O)N1C(c1ccc(OC)cc1)c1cc(OC)c(OC)c(OC)c1 (stereo unspecified) | 0.364 µM (active) | 0.0545 µM (active) | 0.261 µM (active) | 0.306 µM (active) | 0.274 µM (active) | 0.288 µM (active) | 0.047 µM (active) | 0.378 µM (active) |  | 0.531 µM (active) | 0.184 µM (active) | 0.592 µM (active) |  | 0.249 µM (active) | 0.274 µM (active) | 0.968 µM (active) |  | 3.24 µM (inactive) | 0.52 µM (active) | > 100 µM (inactive) |
| Cc1cc(C)nc(NS(=O)(=O)c2ccc(NC(=O)c3cccc4c(NNc5ccc(S(=O)(=O)N=C(N)N)cc5)c5ccccc5nc34)cc2)n1 | > 50 µM (inactive) | > 50 µM (inactive) | > 50 µM (inactive) | > 50 µM (inactive) | > 50 µM (inactive) | > 50 µM (inactive) | > 50 µM (inactive) | > 50 µM (inactive) | > 50 µM (inactive) | > 50 µM (inactive) | > 50 µM (inactive) |  | > 50 µM (inactive) | > 50 µM (inactive) | > 50 µM (inactive) | > 50 µM (inactive) | > 50 µM (inactive) | > 50 µM (inactive) | > 50 µM (inactive) | > 50 µM (inactive) |
